Measured values reported in ChEMBL document CHEMBL1221197, “Selective inhibitors of death in mutant huntingtin cells” (Nat Chem Biol, 2007).
pEC50: −log10 of the molar value. Active and inactive are the calls of the source. The calls are words filed in the database; no cut-off is given here.

Key:
[1] = Inhibition of human huntingtin Q103 mutant expressed in rat PC12 cells assessed as decrease in cell death; format: cell-based, PC-12; conditions: for EC50: pc-12; for pEC50: PC-12, read-out: EC50
[2] = system: neuronal; experiment: Inhibition of huntingtin mutant in Caenorhabditis elegans ASH neuronal cell Huntington disease model assessed as cell viability; format: cell-based
[3] = Cytotoxicity against rat ST14A cells transfected with human htt gene; format: cell-based; conditions: read-out: TC50 (the source's name)
[4] = Inhibition of human huntingtin N548 mutant expressed in rat ST14A cells assessed as decrease in cell death; format: cell-based
[5] = system: Saccharomyces cerevisiae; experiment: Inhibition of huntingtin in Saccharomyces cerevisiae coexpressing exon 1 fragments with polyQ region Huntington disease (HD) model assessed as increase in cell viability
[6] = system: ST14A; experiment: Inhibition of rat ST14A cell death expressing human huntingtin N548 mutant assessed as inhibition of cell death at 50 uM after 6 hrs by fluorimetry; format: functional, cell-based
[7] = system: ST14A; experiment: Inhibition of rat ST14A cell death assessed as inhibition of cell death at 50 uM after 6 hrs by fluorimetry; format: functional, cell-based
[8] = system: PC-12; experiment: Inhibition of human huntingtin Q103 mutant expressed in rat PC12 cells assessed as decrease in cell death relative to control; format: cell-based; set-up: concentration or dose not given beside the values
[9] = system: Brain; experiment: Inhibition of medium spiny neuron degeneration in rat brain slice Huntington disease (HD) model after 4 days; format: functional, tissue-based
[10] = system: ST14A; experiment: Inhibition of cell death in rat ST14A cells assessed as cell viability; format: functional, cell-based
[11] = system: ST14A; experiment: Inhibition of apoptosis in rat ST14A cells transfected with human htt gene assessed as inhibition of caspase 3 cleavage by Western blot method; format: functional, cell-based
[12] = system: ST14A; experiment: Inhibition of apoptosis in rat ST14A cells transfected with human htt gene assessed as inhibition of caspase 7 cleavage by Western blot method; format: functional, cell-based

## CCOC(=O)c1cccc(NS(=O)(=O)c2ccc(OC)cc2)c1
[1]
  EC50: Not Active
[2]
  inhibition: inactive
[3]
  CC50: 119 µM
[4]
  pEC50: 4.82
[5]
  inhibition: inactive

## COc1cc2c(cc1OC)C(C)N(C(=O)NCc1ccccc1)CC2 (stereo not drawn)
[1]
  EC50: Not Active
[2]
  inhibition: inactive
[3]
  CC50: 47 µM
[4]
  pEC50: 5.52
[5]
  inhibition: inactive

## CCCN1C(=O)C(=O)c2cc(C)ccc21
[1]
  EC50: Not Active
[2]
  inhibition: inactive
[3]
  CC50: 98 µM
[4]
  pEC50: 5.30
[5]
  inhibition: inactive

## COC1=CC2C(=O)C(=O)N3C2C(=C1)[C@H](C)CC3(C)C (stereo partly drawn)
[1]
  EC50: Not Active
[2]
  inhibition: inactive
[3]
  CC50: 77 µM
[4]
  pEC50: 4.80
[5]
  inhibition: inactive

## COC(=O)C[C@H](NC(=O)OC(C)(C)C)C(=O)CF
[6]
  inhibition: Dose-dependent effect
[7]
  inhibition: Dose-dependent effect

## CCCCc1ccc(C(=O)N(CCC(=O)N2CCC(Cc3ccccc3)CC2)Cc2ccco2)cc1
[1]
  pEC50: 4.22
[2]
  inhibition: inactive
[3]
  CC50: 41 µM
[4]
  pEC50: 5.30
[8]
  inhibition: 27%
[5]
  inhibition: inactive

## CC(=O)N(C1=C(N(C)C)C(=O)c2ccccc2C1=O)c1ccc(Br)cc1
[1]
  EC50: Not Active
[2]
  inhibition: inactive
[3]
  CC50: 29 µM
[4]
  pEC50: 5.30
[5]
  inhibition: inactive

## CC1CN(C(C)c2nc3ccccc3c(=O)n2-c2ccc(F)cc2)CCC1C(=O)C1CC1 (stereo not drawn)
[1]
  EC50: Not Active
[2]
  inhibition: inactive
[3]
  CC50: 37 µM
[4]
  pEC50: 5.30
[5]
  inhibition: inactive

## Cc1nc2c(O)c(Br)ccn2c(=O)c1Br
[1]
  EC50: Not Active
[2]
  inhibition: inactive
[3]
  CC50: 24 µM
[4]
  pEC50: 5.70
[5]
  inhibition: inactive

## CCCc1cc(OC(=O)C(CC)c2ccccc2)n(-c2cccc(F)c2)n1 (stereo not drawn)
[9]
  inhibition: Active
[1]
  EC50: Not Active
[2]
  inhibition: inactive
[3]
  CC50: 218 µM
[4]
  pEC50: 4.96
[5]
  inhibition: inactive

## CCCCCCCCCC(=O)Oc1cc(-c2ccccc2)nn1-c1cccc(C)c1
[9]
  inhibition: inactive
[1]
  pEC50: 4.00
[2]
  inhibition: inactive
[3]
  CC50: 75 µM
[4]
  pEC50: 5.00
[8]
  inhibition: 23%
[5]
  inhibition: inactive

## Cc1ccc(-c2nc(NS(=O)(=O)c3ccc(Cl)cc3)sc2C)cc1
[1]
  EC50: Not Active
[2]
  inhibition: inactive
[3]
  CC50: 42 µM
[4]
  pEC50: 4.96
[5]
  inhibition: inactive

## CC1=NC(Nc2nc(C)c3cc(C)c(C)cc3n2)=NC(C)(C)C1
[1]
  EC50: Not Active
[2]
  inhibition: inactive
[3]
  CC50: 32 µM
[4]
  pEC50: 5.15
[5]
  inhibition: inactive

## O=c1[nH]c2c(c(=O)[nH]1)C(c1cccc([N+](=O)[O-])c1)C=C(c1ccccc1)O2 (stereo not drawn)
[1]
  EC50: Not Active
[2]
  inhibition: inactive
[3]
  CC50: 110 µM
[4]
  pEC50: 5.52
[5]
  inhibition: inactive

## CC1=NN(C(N)=S)C(=O)/C1=N/Nc1ccccc1C(F)(F)F
[1]
  EC50: Not Active
[2]
  inhibition: inactive
[3]
  CC50: 49 µM
[4]
  pEC50: 5.15
[5]
  inhibition: inactive

## O=C(Cc1cccs1)/C(=N/NC(=O)c1cccc(Br)c1)C(F)(F)F
[1]
  EC50: Not Active
[2]
  inhibition: inactive
[3]
  CC50: 48 µM
[10]
  inhibition: inactive
[4]
  pEC50: 5.30
[5]
  inhibition: inactive

## COc1ccccc1C(CCN(C(C)=O)C(C)c1ccccc1)C1CCC(C)(C)OC1 (stereo not drawn)
[1]
  EC50: Not Active
[2]
  inhibition: inactive
[3]
  CC50: 47 µM
[4]
  pEC50: 5.30
[5]
  inhibition: inactive

## COc1ccc(CN(CCC2(c3ccccc3)CCOC(C)(C)C2)C(=O)c2ccco2)cc1OC (stereo not drawn)
[1]
  EC50: Not Active
[2]
  inhibition: inactive
[3]
  CC50: 50 µM
[4]
  pEC50: 5.30
[5]
  inhibition: inactive

## CC1(C)C(C=C(Cl)Cl)C1C(=O)C1=C(O)CCCC1=O (stereo not drawn)
[1]
  EC50: Not Active
[2]
  inhibition: inactive
[3]
  CC50: 79 µM
[4]
  pEC50: 5.00
[5]
  inhibition: inactive

## CCCCCCN(C(=O)CCCC)C(C)c1nc2ccccc2c(=O)n1-c1ccccc1OC (stereo not drawn)
[1]
  EC50: Not Active
[2]
  inhibition: inactive
[3]
  CC50: 26 µM
[4]
  pEC50: 5.05
[5]
  inhibition: inactive

## COc1c2c(cc3c1C(CC(=O)/C=C/c1ccco1)[N+](C)(C)CC3)OCO2 (stereo not drawn)
[11]
  inhibition: Active
[9]
  inhibition: inactive
[12]
  inhibition: inactive
[1]
  pEC50: 4.66
[2]
  INH: 2.2 mM
[3]
  CC50: 80 µM
[4]
  pEC50: 5.05
[8]
  inhibition: 34%
[5]
  inhibition: inactive

## NNc1nnc(-c2ccccc2)c2ccccc12
[1]
  pEC50: 5.10
[2]
  inhibition: inactive
[3]
  CC50: 102 µM
[4]
  pEC50: 5.30
[8]
  inhibition: 18%
[5]
  inhibition: inactive

## CC(C)C1=CCC2C(=C1)CCC1[C@@]2(C)CCC[C@]1(C)C(=O)O (stereo partly drawn)
[1]
  EC50: Not Active
[2]
  inhibition: inactive
[3]
  CC50: 53 µM
[4]
  pEC50: 5.15
[5]
  inhibition: inactive

## CCCCCCCCC(=O)N(Cc1ccco1)C(C)c1nc2ccccc2c(=O)n1-c1cc(C)ccc1C (stereo not drawn)
[1]
  pEC50: 4.30
[2]
  inhibition: inactive
[3]
  CC50: 39 µM
[4]
  pEC50: 5.70
[8]
  inhibition: 25%
[5]
  inhibition: inactive

## Oc1ccc2c(c1)CC1NCCc3cc(O)c(O)c-2c31 (stereo not drawn)
[1]
  EC50: Not Active
[2]
  inhibition: inactive
[3]
  CC50: 74 µM
[4]
  pEC50: 4.82
[5]
  inhibition: inactive

## CCC1CN2CCc3cc(OC)c(OC)cc3C2CC1CC1c2cc(OC)c(OC)cc2CCN1C(=O)c1ccco1 (stereo not drawn)
[1]
  EC50: Not Active
[2]
  inhibition: inactive
[3]
  CC50: 42 µM
[4]
  pEC50: 5.22
[5]
  inhibition: inactive

## CCCc1cc(OC(=O)c2ccccc2F)n(-c2cccc(F)c2)n1
[11]
  inhibition: Active
[9]
  inhibition: Active
[12]
  inhibition: inactive
[1]
  pEC50: 3.84
[2]
  INH: 3 mM
[3]
  CC50: 235 µM
[10]
  inhibition: inactive
[4]
  pEC50: 4.92
[8]
  inhibition: 21%
[5]
  inhibition: inactive

## CCCc1ccc(CC2=C(O)C(=O)c3ccccc3C2=O)cc1
[1]
  EC50: Not Active
[2]
  inhibition: inactive
[3]
  CC50: 65 µM
[4]
  pEC50: 5.15
[5]
  inhibition: inactive

## COc1ccc(C(CCN(CC2CCOC(C)(C)C2)C(C)=O)c2ccccc2)cc1 (stereo not drawn)
[1]
  EC50: Not Active
[2]
  inhibition: inactive
[3]
  CC50: 49 µM
[4]
  pEC50: 5.00
[5]
  inhibition: inactive

## CC(C)CC(NC(=O)OCc1ccccc1)C(=O)Oc1ccc2c(=O)c(-c3ccc([N+](=O)[O-])cc3)coc2c1 (stereo not drawn)
[1]
  EC50: Not Active
[2]
  inhibition: inactive
[3]
  CC50: 38 µM
[4]
  pEC50: 5.10
[5]
  inhibition: inactive
